From ChEMBL document CHEMBL1201862, “PubChem BioAssay data set” (2004)
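Tested at 5 concentrations; 48 h exposure; 96-well plates; endpoints linearly interpolated, else capped at highest concentration. Here, GI50 denotes the concentration required for 50% inhibition of growth.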 Active and inactive are the calls of the source. No stated cut-off is given here; in the data, active = GI50 up to about 1.1 µM and inactive = higher.

How the values were obtained:
Assay in all cases: NCI-60 cell line screen, 48 h
RPMI-8226 = system: RPMI-8226
786-0 = system: 786-0
SK-MEL-5 = system: SK-MEL-5
T47D = system: T47D
MCF7 = system: MCF7
HL-60 = system: HL-60
RXF 393 = system: RXF 393
UACC-257 = system: UACC-257
SN12C = system: SN12C
A549 = system: A549
SW-620 = system: SW-620
UACC-62 = system: UACC-62
SF-539 = system: SF-539
NCI-H23 = system: NCI-H23
COLO 205 = system: COLO 205
OVCAR-4 = system: OVCAR-4
NCI-H522 = system: NCI-H522
HOP-62 = system: HOP-62
KM12 = system: KM12
ACHN = system: ACHN
MDA-MB-231 = system: MDA-MB-231
SF-268 = system: SF-268
IGROV-1 = system: IGROV-1
U-251 = system: U-251
HCT-15 = system: HCT-15
SK-OV-3 = system: SK-OV-3
K562 = system: K562
NCI-H460 = system: NCI-H460
OVCAR-3 = system: OVCAR-3
SF-295 = system: SF-295
MDA-N = system: MDA-N
OVCAR-8 = system: OVCAR-8
HOP-92 = system: HOP-92
OVCAR-5 = system: OVCAR-5
SNB-75 = system: SNB-75
SNB-19 = system: SNB-19
M14 = system: M14
HCT-116 = system: HCT-116
CCRF-CEM = system: CCRF-CEM
Hs-578T = system: Hs-578T
UO-31 = system: UO-31
LOX IMVI = system: LOX IMVI
PC-3 = system: PC-3
NCI-H226 = system: NCI-H226
NCI/ADR-RES = system: NCI/ADR-RES
DU-145 = system: DU-145
HT-29 = system: HT-29
MDA-MB-435 = system: MDA-MB-435
BT-549 = system: BT-549
SK-MEL-28 = system: SK-MEL-28
HCC 2998 = system: HCC 2998
EKVX = system: EKVX
A498 = system: A498
MOLT-4 = system: MOLT-4
TK-10 = system: TK-10
SK-MEL-2 = system: SK-MEL-2
Malme-3M = system: Malme-3M
CAKI-1 = system: CAKI-1

## COc1cc2c(cc1OC)C(=O)/C(=C/c1cc(C)cc(C)c1)C2
RPMI-8226
  GI50: 0.129 µM (active)
786-0
  GI50: 0.0982 µM (active)
SK-MEL-5
  GI50: 0.0239 µM (active)
T47D
  GI50: 0.883 µM (active)
MCF7
  GI50: 0.385 µM (active)
HL-60
  GI50: < 0.0244 µM (active)
RXF 393
  GI50: 0.0736 µM (active)
UACC-257
  GI50: 0.561 µM (active)
SN12C
  GI50: 0.318 µM (active)
A549
  GI50: 0.0713 µM (active)
SW-620
  GI50: 0.0394 µM (active)
UACC-62
  GI50: 0.0443 µM (active)
SF-539
  GI50: 0.0871 µM (active)
NCI-H23
  GI50: 0.313 µM (active)
COLO 205
  GI50: 0.0735 µM (active)
OVCAR-4
  GI50: 19.8 µM (inactive)
NCI-H522
  GI50: 0.0451 µM (active)
HOP-62
  GI50: 0.127 µM (active)
KM12
  GI50: < 0.0203 µM (active)
ACHN
  GI50: 12.9 µM (inactive)
MDA-MB-231
  GI50: 0.143 µM (active)
SF-268
  GI50: 12.9 µM (inactive)
IGROV-1
  GI50: 0.0908 µM (active)
U-251
  GI50: 0.122 µM (active)
HCT-15
  GI50: 0.0296 µM
SK-OV-3
  GI50: 0.308 µM (active)
K562
  GI50: 0.0232 µM (active)
NCI-H460
  GI50: 0.06 µM (active)
OVCAR-3
  GI50: 0.0324 µM (active)
SF-295
  GI50: < 0.0301 µM (active)
MDA-N
  GI50: < 0.0156 µM (active)
OVCAR-8
  GI50: 0.175 µM (active)
HOP-92
  GI50: 3.29 µM (inactive)
OVCAR-5
  GI50: 1.09 µM (active)
SNB-75
  GI50: 0.211 µM (active)
SNB-19
  GI50: 1.1 µM (active)
M14
  GI50: 0.148 µM (active)
HCT-116
  GI50: 0.0445 µM (active)
CCRF-CEM
  GI50: 0.0514 µM (active)
Hs-578T
  GI50: 0.538 µM (active)
UO-31
  GI50: 1.95 µM (inactive)
LOX IMVI
  GI50: 0.0807 µM (active)
PC-3
  GI50: 0.0667 µM (active)
NCI-H226
  GI50: 0.172 µM (active)
NCI/ADR-RES
  GI50: 0.065 µM (active)
DU-145
  GI50: 0.198 µM (active)
HT-29
  GI50: 0.0385 µM (active)
MDA-MB-435
  GI50: < 0.0146 µM (active)
BT-549
  GI50: 11.3 µM (inactive)
SK-MEL-28
  GI50: 40.7 µM (inactive)
HCC 2998
  GI50: 0.0601 µM (active)
EKVX
  GI50: 1.29 µM (inactive)
A498
  GI50: 0.131 µM (active)
MOLT-4
  GI50: 0.504 µM (active)
TK-10
  GI50: 21.1 µM (inactive)
SK-MEL-2
  GI50: 0.184 µM (active)

## NC(Cc1ccc(S(=O)(=O)O)cc1)C(=O)NC(CCCCNC(=O)NCCCCC(NC(=O)C(N)Cc1ccc(S(=O)(=O)O)cc1)C(=O)NC(Cc1ccc(S(=O)(=O)O)cc1)C(=O)O)C(=O)NC(Cc1ccc(S(=O)(=O)O)cc1)C(=O)O (configuration not stated)
RPMI-8226
  GI50: > 100 µM (inactive)
786-0
  GI50: > 100 µM (inactive)
SK-MEL-5
  GI50: > 100 µM (inactive)
T47D
  GI50: > 100 µM (inactive)
MCF7
  GI50: 69.5 µM (inactive)
HL-60
  GI50: > 100 µM (inactive)
RXF 393
  GI50: > 100 µM (inactive)
UACC-257
  GI50: > 100 µM (inactive)
SN12C
  GI50: > 100 µM (inactive)
A549
  GI50: > 100 µM (inactive)
SW-620
  GI50: > 100 µM (inactive)
UACC-62
  GI50: > 100 µM (inactive)
SF-539
  GI50: > 100 µM (inactive)
NCI-H23
  GI50: > 100 µM (inactive)
COLO 205
  GI50: > 100 µM (inactive)
OVCAR-4
  GI50: > 100 µM (inactive)
NCI-H522
  GI50: > 100 µM (inactive)
HOP-62
  GI50: > 100 µM (inactive)
KM12
  GI50: > 100 µM (inactive)
ACHN
  GI50: > 100 µM (inactive)
MDA-MB-231
  GI50: > 100 µM (inactive)
SF-268
  GI50: > 100 µM (inactive)
Malme-3M
  GI50: > 100 µM (inactive)
IGROV-1
  GI50: > 100 µM (inactive)
U-251
  GI50: > 100 µM (inactive)
HCT-15
  GI50: > 100 µM
SK-OV-3
  GI50: > 100 µM (inactive)
K562
  GI50: > 100 µM (inactive)
NCI-H460
  GI50: > 100 µM (inactive)
OVCAR-3
  GI50: > 100 µM (inactive)
SF-295
  GI50: > 100 µM (inactive)
MDA-N
  GI50: > 100 µM (inactive)
OVCAR-8
  GI50: > 100 µM (inactive)
OVCAR-5
  GI50: > 100 µM (inactive)
SNB-75
  GI50: > 100 µM (inactive)
M14
  GI50: > 100 µM (inactive)
HCT-116
  GI50: > 100 µM (inactive)
CCRF-CEM
  GI50: > 100 µM (inactive)
Hs-578T
  GI50: > 100 µM (inactive)
UO-31
  GI50: > 100 µM (inactive)
LOX IMVI
  GI50: > 100 µM (inactive)
PC-3
  GI50: > 100 µM (inactive)
NCI-H226
  GI50: > 100 µM (inactive)
NCI/ADR-RES
  GI50: > 100 µM (inactive)
DU-145
  GI50: > 100 µM (inactive)
HT-29
  GI50: > 100 µM (inactive)
MDA-MB-435
  GI50: > 100 µM (inactive)
BT-549
  GI50: > 100 µM (inactive)
SK-MEL-28
  GI50: > 100 µM (inactive)
HCC 2998
  GI50: > 100 µM (inactive)
CAKI-1
  GI50: > 100 µM (inactive)
EKVX
  GI50: > 100 µM (inactive)
A498
  GI50: > 100 µM (inactive)
MOLT-4
  GI50: > 100 µM (inactive)
TK-10
  GI50: > 100 µM (inactive)
SK-MEL-2
  GI50: > 100 µM (inactive)
